Test results reported in patent US20100197590A1, “4-AMINO-7,8-DIHYDROPYRIDO[4,3-d]PYRIMIDIN-5(6H)-ONE DERIVATIVES” (Pfizer Inc, priority 2009, published 2010).

target: T1, Human full-length diacylglycerol:acylCoA acyltransferase 1 (DGAT-1) (Homo sapiens, UniProt O75907); test: In vitro DGAT-1 inhibition, Assay 1; type: biochemical; details: Sf9 microsomes at 25 μg/mL, [14C]decanoylCoA, eight inhibitor concentrations; average where n > 1
T1 construct: Human full-length diacylglycerol:acylCoA acyltransferase 1 (DGAT-1) was expressed in Sf9 insect cells; made in house; host or cells: Sf9 insect cells (baculovirus)
T1 sequence (O75907 1-488): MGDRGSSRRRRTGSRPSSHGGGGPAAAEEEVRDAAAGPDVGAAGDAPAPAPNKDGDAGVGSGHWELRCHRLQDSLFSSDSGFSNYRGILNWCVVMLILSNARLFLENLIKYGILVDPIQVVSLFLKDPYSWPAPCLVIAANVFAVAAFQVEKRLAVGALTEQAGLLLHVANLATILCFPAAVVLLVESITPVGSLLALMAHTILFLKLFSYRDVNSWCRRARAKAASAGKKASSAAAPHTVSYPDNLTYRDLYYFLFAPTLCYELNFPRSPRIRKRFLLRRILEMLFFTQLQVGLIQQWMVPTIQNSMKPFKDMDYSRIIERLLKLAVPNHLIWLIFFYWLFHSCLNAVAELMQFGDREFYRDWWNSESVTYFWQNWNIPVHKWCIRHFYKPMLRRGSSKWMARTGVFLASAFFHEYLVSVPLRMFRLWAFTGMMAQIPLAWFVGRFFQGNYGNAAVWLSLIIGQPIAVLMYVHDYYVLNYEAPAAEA
Procedure: Human full-length diacylglycerol:acylCoA acyltransferase 1 (DGAT-1) was expressed in Sf9 insect cells which are then lysed and a crude membrane fraction (105,000×g pellet) was prepared. The DGAT-1 gene is a human DGAT-1 gene described in J Biol Chem 273:26765 (1998) and U.S. Pat. No. 6,100,077.
In vitro inhibition of DGAT-1 was measured using a modification, further described below, of the assay methodology described in U.S. Pat. No. 6,994,956 B2. The cells were cultured as follows. Sf9 cells (20 L) were infected with 4 mL of DGAT-1 Baculovirus Infected Insect Cells (BIIC) for 72 hours in a Wave Bioreactor System 20/50P (Wave Biotec/GE Healthcare).
Crude DGAT-1 microsomes were prepared as follows. Cell pellets were washed once with ice-cold Dulbecco's phosphate-buffered saline. Cells were collected in tabletop centrifuge (Beckman GS-6KR), 15 minutes, 2000×g, 4° C. Twenty (20) mL of ice-cold Microsome Buffer (MB) was added per 5 g of cell pellet. The suspension was passed through a microfluidizer 3 times (18K psi). […] The microsome concentration was determined using Bio-Rad Protein DC Protein Assay. […]
The Microsome Buffer, used for microsome preparation, was prepared by conventional means and contained 125 mM sucrose, 3 mM imidazole, 0.2 μg/mL aprotinin, 0.2 μg/mL leupeptin and 5 mM dithiothreitol (Cleland's reagent) at pH-7.4 DGAT-1 activity was measured in 384-well format in a total assay volume of 20 μl that contained, Hepes buffer (50 mM, pH 7.5), MgCl2 (10 mM), bovine serum albumin (0.6 mg/ml), [^14C]decanoylCoA (25 μM, 58 Ci/mol) and microsomes (5.6 μg/ml) into which 1,2 dioleoyl-sn-glycerol (75 μM) in acetone has already been incorporated. […]
The reactions were allowed to proceed for 1.5 h at room temperature and then terminated by the addition of 20 μl of EDTA (40 mM). […] Plates contents were allowed to partition for 15 to 30 min before ^14C was measured in a scintillation spectrometer (Wallac Microbeta Trilux 1450-030, 12 detector in the top-count DPM mode). […]

Structure (SMILES)	IC50 [nM]
Cc1nc(N)c2c(n1)CCN(c1ccc(C3CCC(CC(=O)O)CC3)cc1)C2=O (stereo not drawn) [Example 13, 2-(4-(4-(4-amino-2-methyl-5-oxo-7,8-dihydropyrido[4,3-d]pyrimidin-6(5H)-yl)phenyl)cyclohexyl)acetic acid]	231
Cc1nc(N)c2c(n1)CCN(c1ccc([C@H]3CC[C@H](CC(=O)O)CC3)cc1)C2=O [Example 14, {trans-4-[4-(4-amino-2-methyl-5-oxo-7,8-dihydropyrido[4,3-d]pyrimidin-6(5H)-yl)phenyl]cyclohexyl}acetic acid]	618
Cc1nc(N)c2c(n1)CCN(c1ccc([C@H]3CC[C@@H](CC(=O)O)CC3)cc1)C2=O [Example 15, {cis-4-[4-(4-amino-2-methyl-5-oxo-7,8-dihydropyrido[4,3-d]pyrimidin-6(5H)-yl)phenyl]cyclohexyl}acetic acid]	717
